Laboratory results: patent US10842758B1, “Transdermal penetrant formulations containing cannabidiol” (AMPERSAND BIOPHARMACEUTICALS, INC., priority 2019, dated 2020)

Assay: Plasma pharmacokinetic profile of cannabidiol after a single topical dose (In-life Study 1901002-01, LC-MS/MS)
Format: in vivo, CD-1 mice
Details: CD-1, topical or ocular, single topical dose 0.1 mL, mouse plasma
Method: The objective of this study was to determine the plasma pharmacokinetic (PK) profile of test article cannabidiol (CBD) following the administration of a single topical dose to CD-1 mice. The work was conducted at Alliance Pharma with a title of In-life Study 1901002-01. Although the in-life study was not intended to be conducted in compliance with Good Laboratory Practice regulations, the study was conducted in accordance with Alliance Pharma's IACUC (Institutional Animal Care and Use Committee) Protocol No. 2016-02_V4 and Alliance Pharma's standard operating procedures (SOPs). In addition, the pharmacokinetic analyses of mouse plasma samples were conducted in accordance with Alliance Pharma SOPs.
A total of 72 mouse (CD-1) plasma samples were transferred from Alliance Pharma's in-life facility located in Malvern, Pa. to the Bioanalytical department for pharmacokinetic analysis. The concentration of CBD in these 72 plasma samples was measured using high-performance liquid chromatography (HPLC) with tandem mass spectrometry (MS/MS) detection.
Test Article: The dose gels for test article CBD were provided by Ampersand Biopharma dba Dyve Biosciences (Thousand Oakes, Calif.), prior to the start of this study and stored at room temperature.
In-life Study Design: In-life Study 1901002-01 was performed at the in-life testing facility at Alliance Pharma. Four (4) groups of 21 CD-1 mice each (84 total) were administered a single topical dose of CBD. Mice in Group 1 were administered Formulation A at a strength of 2.5% CBD. Mice in Group 2 were administered Formulation B at the same strength of 2.5% CBD. Mice in Group 3 were administered Formulation C at a strength of 5% CBD, and mice in Group 4 were administered Formulation C at a strength of 2.5% CBD. The treatment scheme is summarized below.
Animals in each group received topical administration of either 2.5% o 5% CBD using a 1 ml syringe to draw up exactly 100 μl. Compound was applied in the shaved area only. Each group received a different formulation of the compound.
Sample Collection, Processing, and Shipment: Blood samples were collected at the in-life facility at the following time points: 0.25, 0.5, 1, 2, 4, and 8 hours post-dose from 72 mice in Groups 1 through 4 (18 from each treatment group). Target volume was less than or equal to 0.2 ml. The blood was collected via trunk puncture into tubes using K2 EDTA as an anticoagulant. The collected blood samples were kept on wet ice before being centrifuged. Blood samples were centrifuged as soon as possible after blood collection at approximately 10,000 rpm for about 10 minutes to separate the plasma. Approximately 0.2 mL of each plasma sample was transferred into labeled Eppendorf tubes. Each tube was stored in a freezer set to −20° C. or lower. No blood was collected from 12 (3 from each treatment group) of the 84 mice enrolled in the in-life study; thus, the total number of plasma samples that were transferred to the Alliance Pharma Bioanalytical department for bioanalysis was 72.
Assay Procedures: For analysis of CBD, a 25-μL aliquot of each study sample was mixed with 25 μL of acetonitrile/water (50:50, v/v). Samples were then extracted by protein precipitation using acetonitrile containing the internal standard, tolbutamide (25 ng/mL). A portion of the supernatant was diluted in deionized water and used for the analysis of CBD.
Preparation of Standards and Quality Controls: Calibration standards of CBD mouse plasma samples were prepared in acetonitrile/water (50:50, v/v) at concentrations of 1, 2, 20, 200, 500, 1000, 1800, and 2000 ng/mL. The low quality control (LQC), medium quality control (MQC), and high quality control (HQC) were prepared in blank mouse plasma at concentrations of 3, 150, and 1500 ng/mL, respectively. A dilution quality control (DQC) was prepared at a concentration of 10,000 ng/mL and used in Batch 1.
Sample Analyses: Study samples were analyzed using a bioanalytical method qualified by Alliance Pharma. […]

[1] = Group 1: AEM.CBD.006 Formulation A 2.5% CBD, mean dose 78.69 mg/kg
[2] = Group 2: AEM.CBD.007 Formulation B 2.5% CBD, mean dose 76.61 mg/kg
[3] = Group 3: KBM.CBD.010 Formulation C 5% CBD, mean dose 155.24 mg/kg
[4] = Group 4: KBM.CBD.011 Formulation C 2.5% CBD, mean dose 75.76 mg/kg

Q: Which results are given for `C=C(C)[C@@H]1CCC(C)=C[C@H]1c1c(O)cc(CCCCC)cc1O` [Cannabidiol]?
A: AUC(0-inf) [1]: 1860 ng·h/mL; AUC(0-t) [1]: 1760 ng·h/mL; Cmax [1]: 427 ng/mL; Tmax [1]: 2 h; half-life [1]: 1.78 h; AUC(0-inf) [2]: 1650 ng·h/mL; AUC(0-t) [2]: 1560 ng·h/mL; Cmax [2]: 360 ng/mL; Tmax [2]: 2 h; half-life [2]: 1.7 h; AUC(0-inf) [3]: 3530 ng·h/mL; AUC(0-t) [3]: 3070 ng·h/mL; Cmax [3]: 602 ng/mL; Tmax [3]: 4 h; AUC(0-inf) [4]: 1510 ng·h/mL; AUC(0-t) [4]: 1410 ng·h/mL; Cmax [4]: 332 ng/mL; Tmax [4]: 1 h; half-life [4]: 1.92 h
